The nature of data set [1]: Solubility of budesonide in solvents. Format: physicochemical. From the text: Previous efforts to provide stable, inhalable budesonide solutions, including use of cyclodextrins or use of a modified budesonide, have not been proven pharmaceutically acceptable.
For data set [2] the following is noted: background statement, cited from earlier work.

The values below come from US12303520B2, “Aqueous nebulization composition” (Nephron Pharmaceuticals Corporation, priority 2017, dated 2025).

Structures are written as SMILES.

As to `CCC[C@@H]1O[C@@H]2C[C@H]3C4CCC5=CC(=O)C=CC5(C)[C@H]4[C@@H](O)CC3(C)[C@]2(C(=O)CO)O1` (mixture of isomers) [Budesonide, (RS)-11-beta, 16-alpha, 17,21-tetrahydroxypregna-I, 4-diene-3,20-dione cyclic 16,17-acetal with butyraldehyde], the “Solubility of budesonide in pure glycerol” value in data set [1] is “not to be soluble”. In addition, the “Solubility of budesonide in heptanes” value in data set [2] (heptanes) was “practically insoluble”. Besides, in data set [2] (many alcohols (particularly polyhydric alcohols and organic, water-soluble glycols)), the “Solubility of budesonide in alcohols” value is “sparingly soluble”. Further, in data set [2] (water), the “Solubility of budesonide in water” value is “practically insoluble”.
